From patent US20220323414A1, “FARNESOID X RECEPTOR AGONISTS FOR THE TREATMENT OF DISEASE” (Metacrine, Inc., priority 2018, published 2022) come the findings set out here.

The nature of series [1]: NASH clinical trial Part 1: plasma levels of Compound 1. In kind it is in vivo, human. As to conditions: 50 mg, healthy and NASH patients. The method, then: (§1) Part 1: An open-label, uncontrolled, single-center study assessing 50 mg of Compound 1 treatment for 4 weeks; 10 subjects were enrolled.
Pharmacokinetic Assessments: Blood samples will be taken according to the PK sampling schedule.
(§2) Length of Study: Subjects enrolled in Part 1 participated in the study for approximately 12 weeks, which included a 4-week screening period, 4 weeks (28 days) for the treatment period, and 4 weeks for follow-up. Subjects enrolled in Part 2 will participate in the study for approximately 20 weeks, which includes an approximate 4-week screening period, 12 weeks (84 days) for the treatment period, and 4 weeks for follow-up. • Study Treatment (Part 1): Subjects enrolled in Part 1 received Compound 1 50 mg for 28 consecutive days. • Study Treatment (Part 2): Subjects enrolled in Part 2 will receive Compound 1 (80 mg or 50 mg) or matching placebo for 84 consecutive days.

The subject of series [2] is fibroblast growth factor 19 (FGF19). The series is described as follows: Phase 1 MAD pharmacodynamics: plasma FGF19. In kind it is in vivo, human. As to conditions: healthy subjects, multiple doses 20 mg to 150 mg. On the procedure: (§3) PD: Plasma levels of 7-alpha-hydroxy-4-cholesten-3-one (C4), plasma levels of fibroblast growth factor 19 (FGF19), and levels of total bile acids (for Part B only).
(§4) 6 groups of 10 healthy male subjects each to investigate the safety, tolerability, PK, and PD of multiple oral doses of Compound 1. Subjects in all groups received ascending multiple oral doses of Compound 1 or matching placebo once daily on Days 1 to 14. Dosing was conducted under fasted conditions on each dosing day. Patients in each group received multiple oral doses of 20, 40, 50, 80, 100, and 150 mg of Compound 1 once daily on days 1 to 14 of the study. Eight members of each group received Compound 1, and two members of each group received placebo.

Series [3] deals with 7-alpha-hydroxy-4-cholesten-3-one (C4). The series is described as follows: Phase 1 MAD pharmacodynamics: plasma C4. The format is in vivo, human. The note with it: healthy subjects. On the procedure: as §3, §4
Series [4] relates to alanine aminotransferase (ALT). The experiment in a line: NASH clinical trial Part 1: ALT. The format is in vivo, human. The note with it: NASH patients, 50 mg daily. The method, then: as §1, §2
Levels of alanine aminotransferase (ALT) and gamma-glutamyl transferase (GGT) were assessed in subjects prior to administration of Compound 1, after 14 days of dosing of Compound 1, and after 28 days of dosing of Compound 1. The resulting percent changes from baseline for these biomarkers can be seen in FIG. 6A, FIG. 6B.

Series [5] has as its system total bile acids. The series is described as follows: Phase 1 MAD pharmacodynamics: total bile acids. As to conditions: healthy subjects, 50-150 mg/day cohorts, day 14. In kind it is in vivo, human. On the procedure: as §3, §4
In series [6] the test system is subjects with NASH (liver fat content). The series is described as follows: NASH clinical trial Part 1: hepatic fat. As to conditions: NASH patients, 50 mg daily, after 28 days. The format is in vivo, human. On the procedure: Purpose: The purposes of this study was to evaluate the safety and tolerability of Compound 1 monotherapy in subjects with NASH, to characterize the pharmacokinetics (PK) of Compound 1, to characterize the pharmacodynamics (PD) of Compound 1 dose and response, to estimate the activity of Compound 1 using Magnetic Resonance Imaging-Proton Density Fat Fraction (MRI-PDFF) and NASH fibrosis biomarkers.
as §1
Length of Study: Subjects enrolled in Part 1 participated in the study for approximately 12 weeks, which included a 4-week screening period, 4 weeks (28 days) for the treatment period, and 4 weeks for follow-up. […]
The 10 patients with NASH who enrolled in the study received 50 mg doses of Compound 1 daily for a period of 28 days as described above. Hepatic fat levels in each patient were assessed prior to treatment with Compound 1, after 28 days of treatment with Compound 1, then again 28 days after cessation of treatment with Compound 1.

The subject of series [7] is gamma-glutamyl transferase (GGT). The experiment in a line: NASH clinical trial Part 1: GGT. In kind it is in vivo, human. The note with it: NASH patients, 50 mg daily. The method, then: as §1, §2
The resulting percent changes from baseline for these biomarkers can be seen in FIG. 6A, FIG. 6B.

For series [8], the target named is T1, hFXR (Homo sapiens, UniProt Q96RI1).
T1 construct: expressed in transfected cells; host or cells: CV-1 cells
T1 sequence (Q96RI1 1-486): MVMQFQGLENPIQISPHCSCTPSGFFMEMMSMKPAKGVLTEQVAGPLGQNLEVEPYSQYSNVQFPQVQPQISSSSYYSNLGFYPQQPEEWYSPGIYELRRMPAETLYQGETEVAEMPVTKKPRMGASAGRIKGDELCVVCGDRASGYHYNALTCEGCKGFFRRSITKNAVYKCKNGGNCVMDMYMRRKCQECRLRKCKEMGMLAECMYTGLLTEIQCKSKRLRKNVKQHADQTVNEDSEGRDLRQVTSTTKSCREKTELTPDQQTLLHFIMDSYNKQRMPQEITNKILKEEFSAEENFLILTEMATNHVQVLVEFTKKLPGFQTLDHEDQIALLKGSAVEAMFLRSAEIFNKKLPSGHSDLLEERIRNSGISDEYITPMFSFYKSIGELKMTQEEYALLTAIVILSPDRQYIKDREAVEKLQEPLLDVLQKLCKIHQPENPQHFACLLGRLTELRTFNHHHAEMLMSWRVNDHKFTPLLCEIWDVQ
T1 sequence (P19793 1-462 partner): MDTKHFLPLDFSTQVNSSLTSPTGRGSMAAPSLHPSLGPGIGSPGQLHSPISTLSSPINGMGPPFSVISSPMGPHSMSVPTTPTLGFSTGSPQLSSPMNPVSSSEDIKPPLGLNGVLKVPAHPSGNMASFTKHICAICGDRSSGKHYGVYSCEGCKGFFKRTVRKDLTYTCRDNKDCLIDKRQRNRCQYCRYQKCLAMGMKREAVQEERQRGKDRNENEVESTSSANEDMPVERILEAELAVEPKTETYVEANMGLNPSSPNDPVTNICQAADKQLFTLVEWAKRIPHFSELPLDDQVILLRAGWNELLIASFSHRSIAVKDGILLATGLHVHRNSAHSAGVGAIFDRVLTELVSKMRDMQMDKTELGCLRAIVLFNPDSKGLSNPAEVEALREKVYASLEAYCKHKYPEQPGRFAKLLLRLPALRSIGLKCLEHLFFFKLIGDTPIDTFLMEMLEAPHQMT
The series is described as follows: In Vitro FXR Assay (TK). The note with it: transfected CV-1 cells, luminescence, 18 hrs. In kind it is cell-based. The method, then:
CV-1 cells were seeded at a density of 2,000,000 cells in a T175 flask with DMEM+10% charcoal double-stripped FBS and incubated at 37° C. in 5% CO2 for 18 h (O/N).
After 18 h of incubation, the medium in the T175 flask was changed with fresh DMEM+10% charcoal super-stripped serum. In a polypropylene tube, 2500 μL OptiMEM (Life Technologies, Cat #31985-062) was combined with expression plasmids for hFXR, hRXR, TK-ECRE-luc and pCMX-YFP. The tube was then briefly vortexed and incubated at room temperature for 5 minutes. Transfection reagent (X-tremeGENE HP from Roche, Cat #06 366 236 001) was added to the OptiMEM/plasmid mixture vortexed and incubated at room temperature for 20 minutes. Following incubation, the transfection reagent/DNA mixture complex was added to cells in the T175 flask and the cells were incubated at 37° C. in 5% CO2 for 18 h (O/N).
Compounds were serially diluted in DMSO and added to transfected CV-1 cells. The cells were then incubated for 18 hrs. The next day cells were lysed and examined for luminescence.

A short description of series [9]: Phase 1 multiple ascending dose PK in healthy subjects (plasma Compound 1 concentrations). In kind it is in vivo, human.
Description: Purpose: The purposes of this study was to assess the safety and tolerability of single and multiple oral doses of Compound 1, to characterize the pharmacokinetics (PK) of single and multiple oral doses of Compound 1, to characterize the pharmacodynamics (PD) of single and multiple oral doses of Compound 1, and to identify the recommended multiple oral dose level(s) of Compound 1 for future studies in patients. The study was a first-in-human, 2-part, single-center Phase 1, randomized, double-blind, placebo-controlled study in healthy male subjects.
PK: Plasma Compound 1 concentrations, Plasma PK parameters.
as §4

The test system of series [10] is SCID mice with CD4+CD45RB high T-cell transfer colitis. The experiment in a line: Adoptive T-cell transfer colitis mouse model. In kind it is in vivo. As to conditions: for reduction of histopathology sum score: vehicle sum score 10. The method, then:
Adoptive T-cell transfer colitis model is accepted as a relevant mouse model for human inflammatory bowel disease (IBD). To induce colitis in this model, the CD4 T-lymphocyte population is isolated from the spleens of donor mice. Subsequently, a subpopulation of CD4+CD45RB high T-cells is purified by cell sorting using flow cytometry. The purified CD4+CD45RB high T-cells are injected into the peritoneal cavity of the recipient severe combined immunodeficiency (SCID) mice. Colitis develops approximately three to six weeks after T-cell transfer, which is monitored by loss of body weight, inconsistent stool or bloody diarrhea. Testing of combinations of an FXR agonist and an additional therapeutic agent described herein is initiated at the same time of injecting purified CD4+CD45RBhigh T-cells to the recipient SCID mice. Alternatively, the combinations of an FXR agonist and an additional therapeutic agent described herein are administered two or three weeks post T-cell transfer, when colitis has already developed in the model. During the period of administering the combinations of an FXR agonist and an additional therapeutic agent described herein to mice, the therapeutic effects may be monitored by observations on body weights, stool consistency, or rectal bleeding. After euthanasia, the disease development and effects of the compounds are further quantified by measuring colon weight and length, and colon histology by H&E staining for inflammation and structural changes in mucosa, and protein and RNA expression of genes related to the disease.

Consider `COc1ccc([C@H]2CC[C@H](CN(c3cccc(-c4cnn(C5CC5)c4)c3)C(=O)[C@H]3CC[C@H](O)CC3)CC2)cc1C` [Compound 1], for which the “plasma levels over the 24 hour period after dosing” value in series [1] is on record as “remained nearly constant”. For the same compound, in series [2], the “mean FGF19 levels” value was “increased” and the “time of maximum increase in mean FGF19 levels” value is reported as 6 to 10 hours post dose. For the same compound, in series [3] (Day 14), the “dose at which the decrease in C4 levels was notable” value was at least 50 mg and the “mean C4 levels at 24 hours post dose” value is reported as “remained decreased”. Moreover, the “mean C4 levels versus placebo” value in series [3] (multiple doses 20 mg to 150 mg, Day 14, most dose levels) is reported as “lower than for placebo treatment”. Also, the “ALT decrease from baseline” value in series [4] (day 14) was determined as 7.9%. Moreover, in series [4] (day 28), the ALT below baseline came out at 16.5%. In [5], the “change in bile acid levels” value is recorded as “decrease in bile acid levels”. Besides, the “average reduction in fatty liver deposits from baseline” value in [6] was 20.3%. Moreover, the GGT levels decrease in series [7] came to 23.2%. In addition, the “GGT decrease from baseline” value in series [7] (day 28) was 36.3%. The same compound returned an EC50 in series [8] of at most 0.25 µM. Moreover, the “plasma levels at 24 hours following dosing” value in [9] (14 days once daily oral dosing) is listed as “high levels in the plasma at 24 hours following dosing”. For the same compound, the “plasma drug exposure with dose” value in [9] (14 days once daily oral, 20 mg to 150 mg) is “increase in plasma drug exposure with dose”.
For the compound `COc1ncc(-c2cccc(N(C[C@H]3CC[C@H](c4ccc(OC)c(C)c4)CC3)C(=O)[C@H]3CC[C@H](O)CC3)c2)s1` [Compound 2, (1R,4R)-4-hydroxy-N-(((1R,4R)-4-(4-methoxy-3-methylphenyl)cyclohexyl)methyl)-N-(3-(2-methoxythiazol-5-yl)phenyl)cyclohexane-1-carboxamide], in series [10] (10 mg/kg), the “reduction in colon W/L as compared to vehicle” value is 41% and the “reduction of histopathology sum score” value is 71%. Further, in [10] (30 mg/kg), the “reduction in colon W/L as compared to vehicle” value was 38% and the “reduction of histopathology sum score” value turned out to be 74%. For the same compound, the “reduction in body weight from baseline caused by T-cell transfer” value in series [10] (12% body weight reduction after CD4+CD45RBhi T-cell transfer, Compound 2 at 10 mg/kg) is recorded as “reversed”. Besides, in series [10] (adoptive T-cell transfer model), the “efficacy in reducing colitis relative to comparators” value was “efficacy superior to CsA and comparable to anti-IL-12/23 treatment”.
